# From patent US11530388B2, “Methods of engineering human induced pluripotent stem cells to produce liver tissue” (University of Pittsburgh—Of the Commonwealth System of …, priority 2017, dated 2022)
# Experiments:
# [1] = test system: Untransfected HEK293 cells; experiment: Caspase 3/7 Assay after AP1903 stimulation of untransfected control cells; format: cell-based, human; settings: untransfected HEK293 cells treated with AP1903
# Procedure: (§1) HEK293 cells are transfected with pMSCV-F-del-Casp9_IRES-GFP (Addgene). • To assess transfection efficiency, cells are co-transfected with a TagRFP control plasmid ( 1/10 of total amount of DNA). • On day 3 transfected cells and negative control are monitored, counted and seeded (1E04 cells/96-well) for Caspase 3/7 Assay (Promega; G8091) Per Transfection/Negative Control cells were seeded as follows: • Per concentration small molecule (chemical inducer of dimerization) AP1903 (ApexBio) two wells, the same amount for negative control. For shuttle control, also wells per concentration are seeded. • On day 4, stimulation with AP1903 starts (0; 0,1; 1; 10 nmol/1). Shuttle control includes cells treated with ethanol only. T=0 h was measured immediately and T=24 h is measured as end point. (FIG. 13) • iCasp9-IRES-GFP construct is cloned with the rat albumin promoter pEAlb123. • iCasp9 expression (mRNA) is quantified in H4-II-E-C3 by qRT-PCR. Cells are transfected with plasmids pEAlb123-iCasp9-IRES-GFP and pcDNA3-CMV-eGFP (positive control). • Cells are harvested and RNA is isolated. iCASP9 and eGFP-specific PCR primers are used to measure expression (FIG. 14).
# [2] = test system: pMSCV-F-del Casp9-IRES-GFP transfected HEK293 cells (iCasp9); experiment: Caspase 3/7 Assay after AP1903 stimulation of iCasp9-transfected cells; format: cell-based, human; settings: compared to ethanol stimulated cells, 0, 0.1, 1, 10 nmol/l tested, 24 h end point
# Source text: Because repopulated rat livers with human iPS-Heps can be reconstituted with both rodent cells and human cells, systems to maximize the human component to 100% of the livers and to purify human cells after perfusion/isolation of livers are beneficial. Suicide systems can be designed to potentiate these processes by efficiently inducing apoptosis in transduce cells. An inducible caspase-9 (iCasp9), encoded by a suicide gene engineered from human caspase-9, was incorporated. […]
# as §1, with “For shuttle control, also wells per concentration are seeded. • On day 4, stimulation with AP1903 starts (0; 0,1; 1; 10 nmol/1). Shuttle control includes cells treated with ethanol only.” left out, “Cells are transfected with plasmids pEAlb123-iCasp9-IRES-GFP and pcDNA3-CMV-eGFP (positive control). • Cells are harvested and RNA is isolated. iCASP9 and eGFP-specific PCR primers are used to measure expression (FIG. 14).” left out
structure (smiles),measurement,setting,value
CC[C@@H](C(=O)N1CCCC[C@H]1C(=O)O[C@@H](CCc1ccc(OC)c(OC)c1)c1cccc(OCC(=O)NCCNC(=O)COc2cccc([C@@H](CCc3ccc(OC)c(OC)c3)OC(=O)[C@@H]3CCCCN3C(=O)[C@H](CC)c3cc(OC)c(OC)c(OC)c3)c2)c1)c1cc(OC)c(OC)c(OC)c1 [AP1903],effect of AP1903 in Caspase 3/7 Assay,[1],did not show any effect
same,AP1903 concentration giving maximum effect in Caspase 3/7 Assay,[2],1 nmol/L
